Source: ChEMBL document CHEMBL1153320, “Development of the renal glucose reabsorption inhibitors: a new mechanism for the pharmacotherapy of diabetes mellitus type 2” (J Med Chem, 2009)

Legend:
[1] = biological target: T1, Sodium/glucose cotransporter 2 (Homo sapiens, UniProt P31639); test: Inhibition of human kidney SGLT2 assessed as renal glucose reabsorption
T1 sequence (P31639 whole entry): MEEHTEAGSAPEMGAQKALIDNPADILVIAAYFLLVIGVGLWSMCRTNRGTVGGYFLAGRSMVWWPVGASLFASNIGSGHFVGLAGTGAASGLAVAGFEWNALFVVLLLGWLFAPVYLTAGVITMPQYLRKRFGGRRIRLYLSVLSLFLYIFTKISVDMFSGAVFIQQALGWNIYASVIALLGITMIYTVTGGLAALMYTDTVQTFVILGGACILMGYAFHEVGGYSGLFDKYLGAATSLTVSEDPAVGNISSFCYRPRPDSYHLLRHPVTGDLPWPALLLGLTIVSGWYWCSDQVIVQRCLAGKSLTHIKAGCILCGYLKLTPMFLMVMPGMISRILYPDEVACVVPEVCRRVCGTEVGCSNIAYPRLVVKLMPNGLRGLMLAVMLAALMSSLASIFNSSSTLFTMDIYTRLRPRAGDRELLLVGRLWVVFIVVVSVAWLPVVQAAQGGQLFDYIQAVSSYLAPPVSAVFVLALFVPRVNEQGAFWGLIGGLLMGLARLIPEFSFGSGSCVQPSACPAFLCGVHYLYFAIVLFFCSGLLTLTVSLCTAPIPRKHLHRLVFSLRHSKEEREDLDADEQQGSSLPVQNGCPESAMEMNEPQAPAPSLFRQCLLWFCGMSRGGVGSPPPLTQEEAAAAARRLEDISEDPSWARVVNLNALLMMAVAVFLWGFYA

[2] = tested on: Rattus norvegicus; test: Antidiabetic activity in normal Sprague-Dawley rat assessed as urinary glucose excretion at 300 mg/kg, po after 24 hrs; type: functional, Urine
[3] = tested on: Rattus norvegicus; test: Antidiabetic activity in normal Sprague-Dawley rat assessed as urinary glucose excretion at 100 mg/kg, po after 24 hrs; type: functional, Urine
[4] = tested on: Rattus norvegicus; test: Antidiabetic activity in normal Sprague-Dawley rat assessed as urinary glucose excretion at 30 mg/kg, po after 24 hrs; type: functional, Urine
[5] = tested on: Rattus norvegicus; test: Antidiabetic activity in normal Sprague-Dawley rat assessed as urinary glucose excretion at 10 mg/kg, po after 24 hrs; type: functional, Urine
[6] = tested on: Homo sapiens; test: Antidiabetic activity in po dosed type 2 diabetes mellitus patient assessed as reduction in HbA1C level in small intestine; type: functional; design: scale not given: the % may be the effect or the level left
[7] = tested on: Homo sapiens; test: Antidiabetic activity in po dosed type 2 diabetes mellitus patient assessed as reduction in HbA1C level […]; type: functional; design: scale not given: the % may be the effect or the level left
[8] = clinical; conditions: human, in vivo, po
[9] = Clearance in normal human at 10 to 100 mg/day, po administered as single ascending dose; conditions: in vivo
[10] = tested on: Rattus norvegicus; test: Antidiabetic activity in normal Sprague-Dawley rat assessed as urinary glucose excretion at 1 mg/kg, po after 24 hrs; type: functional, Urine
[11] = Half life in normal human at 10 to 100 mg/day, po administered as single ascending dose; conditions: in vivo
[12] = tested on: Homo sapiens; test: Antidiabetic activity in type 2 diabetes mellitus patient assessed as reduction in HbA1C level at 750 mg, po daily measured after 12 weeks; type: functional; design: scale not given: the % may be the effect or the level left
[13] = species: Homo sapiens; test: Antidiabetic activity in type 2 diabetes mellitus patient assessed as reduction body weight; type: functional; design: scale not given: the % may be the effect or the level left
[14] = tested on: Homo sapiens; test: Antidiabetic activity in po dosed type 2 diabetes mellitus patient assessed as reduction in HbA1C level in intestine; type: functional; design: scale not given: the % may be the effect or the level left
[15] = tested on: Homo sapiens; test: Antidiabetic activity in po dosed type 2 diabetes mellitus patient assessed as reduction in HbA1C level in liver; type: functional; design: scale not given: the % may be the effect or the level left
[16] = tested on: Rattus norvegicus; test: Antidiabetic activity in normal Sprague-Dawley rat assessed as urinary glucose excretion at 3 mg/kg, po after 24 hrs; type: functional, Urine
[17] = species: Homo sapiens; test: Selectivity for human SGLT2 over human SGLT1
[18] = tested on: Homo sapiens; test: Antidiabetic activity in po dosed type 2 diabetes mellitus patient assessed as reduction in HbA1C level in skeletal muscle; type: functional, Muscle tissue; design: scale not given: the % may be the effect or the level left
[19] = tested on: Homo sapiens; test: Antidiabetic activity in po dosed type 2 diabetes mellitus patient assessed as reduction in HbA1C level in adipose tissue; type: functional; design: scale not given: the % may be the effect or the level left
[20] = tested on: Homo sapiens; test: Antidiabetic activity in over-weight subject assessed as reduction of body weight at […], po tid for 2 weeks; type: functional
[21] = tested on: Homo sapiens; test: Antidiabetic activity in normal human assessed as reduction urinary glucose excretion at 500 mg, po after 24 hrs; type: functional, Urine
[22] = tested on: Homo sapiens; test: Antidiabetic activity in normal human assessed as reduction urinary glucose excretion at 200 mg, po after 24 hrs; type: functional, Urine
[23] = tested on: Homo sapiens; test: Antidiabetic activity in normal human assessed as plasma glucose level at 500 mg, po after 4 hrs by OGTT; type: functional

## Cc1cc(O)c(C(=O)CCc2ccc3occc3c2)c(O[C@@H]2O[C@H](CO)[C@@H](O)[C@H](O)[C@H]2O)c1
[1]
  IC50: 50 nM

## CCNC(=O)c1c(O)c(Cc2ccc(OC)cc2)cc([C@@H]2O[C@H](CO)[C@@H](O)[C@H](O)[C@H]2O)c1O
[1]
  EC50: 500 nM

## COC(=O)OC[C@H]1O[C@@H](Oc2cc(C)cc(O)c2C(=O)CCc2ccc3occc3c2)[C@H](O)[C@@H](O)[C@@H]1O
[2]
  Activity: 2000 mg
[3]
  Activity: 1000 mg
[4]
  Activity: 450 mg
[5]
  Activity: 50 mg

## CCc1ccc(Cc2ccccc2[C@@H]2O[C@H](CO)[C@@H](O)[C@H](O)[C@H]2O)cc1
[1]
  EC50: > 2 nM

## C[C@H]1O[C@H](O[C@H]2[C@H](O)[C@@H](O)[C@@H](O[C@H]3[C@H](O)[C@@H](O)C(O)O[C@@H]3CO)O[C@@H]2CO)[C@H](O)[C@@H](O)[C@@H]1N[C@H]1C=C(CO)[C@@H](O)[C@H](O)[C@H]1O (stereo partly specified) [ACARBOSE]
[6]
  Activity: 0.5%
[7]
  Activity: 0.5%

## CCOc1ccc(Cc2cc([C@@H]3O[C@H](CO)[C@@H](O)[C@H](O)[C@H]3O)ccc2Cl)cc1 [DAPAGLIFLOZIN]
[8]
  Tmax: 1 h
[9]
  CL/F: 6 mL/min
[10]
  Activity: 1100 mg
[11]
  half-life: 15 h

## CCC1=C(C)CN(C(=O)NCCc2ccc(S(=O)(=O)NC(=O)N[C@H]3CC[C@H](C)CC3)cc2)C1=O [GLIMEPIRIDE]
[7]
  Activity: 1%

## C/N=C(\N)N(C)C(=N)N.Cl [METFORMIN XR]
[12]
  Activity: 0.73%
[13]
  Activity: 2.3%

## CN(C)C(=N)NC(=N)N [METFORMIN]
[14]
  Activity: 1%
[15]
  Activity: 1%
[7]
  Activity: 1%

## O=C(CCc1ccc(O)cc1)c1c(O)cc(O)cc1O[C@@H]1O[C@H](CO)[C@@H](O)[C@H](O)[C@H]1O [PHLORIZIN]
[2]
  Activity: 80 mg

## CCOC(=O)OC[C@H]1O[C@@H](Oc2nn(C(C)C)c(C)c2Cc2ccc(OC(C)C)cc2)[C@H](O)[C@@H](O)[C@@H]1O [REMOGLIFLOZIN ETABONATE]
[16]
  Activity: 95 mg
[10]
  Activity: 36 mg
[5]
  Activity: 320 mg

## Cc1c(Cc2ccc(OC(C)C)cc2)c(O[C@@H]2O[C@H](CO)[C@@H](O)[C@H](O)[C@H]2O)nn1C(C)C [REMOGLIFLOZIN]
[17]
  Ratio: 365
[1]
  EC50: 14 nM
  Ki: 12.4 nM

## CCOc1cc(CC(=O)N[C@@H](CC(C)C)c2ccccc2N2CCCCC2)ccc1C(=O)O [REPAGLINIDE]
[7]
  Activity: 1%

## CN(CCOc1ccc(CC2SC(=O)NC2=O)cc1)c1ccccn1 (stereo unspecified) [ROSIGLITAZONE]
[18]
  Activity: 0.5%
[19]
  Activity: 0.5%
[15]
  Activity: 0.5%

## COc1ccc(Cc2ccccc2O[C@@H]2O[C@H](CO)[C@@H](O)[C@H](O)[C@H]2O)cc1 [SERGLIFLOZIN A]
[17]
  Ratio: 296
[1]
  EC50: 9 nM
  Ki: 2.4 nM

## CCOC(=O)OC[C@H]1O[C@@H](Oc2ccccc2Cc2ccc(OC)cc2)[C@H](O)[C@@H](O)[C@@H]1O [SERGLIFLOZIN ETABONATE]
[16]
  Activity: 80 mg
[20]
  Activity: 1.5 kg
[4]
  Activity: 400 mg
[21]
  Activity: 17 g
[22]
  Activity: 12 g
[5]
  Activity: 180 mg
[23]
  Activity: 7 mmol·h/L

## N[C@@H](CC(=O)N1CCn2c(nnc2C(F)(F)F)C1)Cc1cc(F)c(F)cc1F [SITAGLIPTIN]
[14]
  Activity: 0.6%
